# In US20110130286A1, “Piperazine Compounds with Herbicidal Effect” (BASF SE, priority 2008, published 2011):
# How the values were obtained:
# LOLMU = test: greenhouse test, post-emergence treatment; format: in vivo, Lolium multiflorum; details: application rate 1.0 kg/ha, scale from 0 to 100
# Excerpt: (§1) The culture containers used were plastic flowerpots containing loamy sand with approximately 3.0% of humus as the substrate. The seeds of the test plants were sown separately for each species.
# (§2) For the post-emergence treatment, the test plants were first grown to a height of 3 to 15 cm, depending on the plant habit, and then treated with the active compounds which had been suspended or emulsified in water. For this purpose, the test plants were either sown directly and grown in the same containers, or they were first grown separately as seedlings and transplanted into the test containers a few days prior to treatment.
# (§3) Depending on the species, the plants were kept at 10-25° C. or 20-35° C. The test period extended over 2 to 4 weeks. During this time, the plants were tended, and their response to the individual treatments was evaluated.
# (§4) Evaluation was carried out using a scale from 0 to 100. 100 means no emergence of the plants, or complete destruction of at least the aerial moieties, and 0 means no damage, or normal course of growth. A good herbicidal activity is given at values of at least 70 and a very good herbicidal activity is given at values of at least 85.
# ECHCG [1] = test: greenhouse test, post-emergence treatment; format: in vivo, Echinochloa crus-galli; details: application rate 1.0 kg/ha, scale from 0 to 100
# Excerpt: as §1, §2, §3, §4
# AVEFA = test: greenhouse test, post-emergence treatment; format: in vivo, Avena fatua; details: application rate 1.0 kg/ha, scale from 0 to 100
# Excerpt: as §1, §2, §3, §4
# ECHCG [2] = test: greenhouse test, pre-emergence treatment; format: in vivo, Echinochloa crus-galli
# Excerpt: as §1
# (§5) For the pre-emergence treatment, the active compounds, which had been suspended or emulsified in water, were applied directly after sowing by means of finely distributing nozzles. The containers were irrigated gently to promote germination and growth and subsequently covered with transparent plastic hoods until the plants had rooted. This cover caused uniform germination of the test plants, unless this has been impaired by the active compounds.
# as §3, §4
# (§6) The respective stated components A and B were formulated as a 5% by weight strength or 10% by weight strength emulsion concentrate, or a commercial formulation of component B was used, and, with addition of the amount of solvent system, introduced into the spray liquor used for applying the active compound. In the examples, the solvent used was water.
# (§7) The test period extended over 20 or 21 days. During this time, the plants were tended, and their reactions to the treatments with active compound were monitored.
# (§8) In the examples below, using the method of S. R. Colby (1967) “Calculating synergistic and antagonistic responses of herbicide combinations”, Weeds 15, p. 22ff., the value E, which is expected if the activity of the individual active compounds is only additive, was calculated.
# (§9) What was evaluated was the damage by the chemical compositions using a scale of from 0 to 100%, in comparison to the untreated control plants. 0 means no damage, and 100 means complete destruction of the plants.
# ALOMY [3] = test: greenhouse test, pre-emergence treatment; format: in vivo, Alopecurus agrestis; details: for herbicidal activity against ALOMY: application rate 0.125 kg/ha, comparative test
# Excerpt: as §1, §5, §3, §4, §6, §7, §8, §9
# APESV [4] = test: greenhouse test, pre-emergence treatment; format: in vivo, Apera spica-venti; details: for herbicidal activity against APESV: application rate 0.125 kg/ha, comparative test
# Excerpt: as §1, §5, §3, §4, §6, §7, §8, §9
# LAMPU = test: greenhouse test, pre-emergence treatment; format: in vivo, Lamium purpureum
# Excerpt: as §1, §5
# (§10) Depending on the species, the plants were kept at 10-25° C. or 20-35° C. […] During this time, the plants were tended, and their response to the individual treatments was evaluated. […]
# as §7, §8
# (§11) What was evaluated was the damage by the chemical compositions using a scale of from 0 to 100%, in comparison to the untreated control plants. […]
# APESV [5] = test: greenhouse test, post-emergence treatment; format: in vivo, Apera spica-venti
# Excerpt: as §1, §2, §10, §7, §8, §11
# SETVI = test: greenhouse test, pre-emergence treatment; format: in vivo, Setaria viridis
# Excerpt: as §1, §5, §10, §7, §8, §11
# POLCO [6] = test: greenhouse test, post-emergence treatment; format: in vivo, Fallopia convolvulus
# Excerpt: as §1, §2, §10, §7, §8, §11
# CHEAL = test: greenhouse test, post-emergence treatment; format: in vivo, Chenopodium album
# Excerpt: as §1, §2, §10, §7, §8, §11
# BRAPL = test: greenhouse test, pre-emergence treatment; format: in vivo, Brachiaria plantaginea
# Excerpt: as §1, §5, §10, §7, §8, §11
# VIOAR = test: greenhouse test, pre-emergence treatment; format: in vivo, Viola arvensis
# Excerpt: as §1, §5, §10, §7, §8, §11
# BROIN [7] = test: greenhouse test, post-emergence treatment; format: in vivo, Bromus inermis
# Excerpt: as §1, §2, §10, §7, §8, §11
# ALOMY [8] = test: greenhouse test, post-emergence treatment; format: in vivo, Alopecurus agrestis
# Excerpt: as §1, §2, §10, §7, §8, §11
# ABUTH = test: greenhouse test, pre-emergence treatment; format: in vivo, Abutilon theophrasti
# Excerpt: as §1, §5, §10, §7, §8, §11
# BROIN [9] = test: greenhouse test, pre-emergence treatment; format: in vivo, Bromus inermis
# Excerpt: as §1, §5, §3, §6, §7, §8, §9
# POLCO [10] = test: greenhouse test, pre-emergence treatment; format: in vivo, Fallopia convolvulus
# Excerpt: as §1, §5, §10, §7, §8, §11
# [11] = application rate 0.125 kg/ha, comparative test
smiles,measurement,setting,value
CN1C(=O)C(C)(Cc2ccccc2)N(C)C(=O)C1=Cc1cccnc1Br (racemic) [I-1],herbicidal activity against LOLMU,LOLMU,very good (a very good herbicidal activity is given at values of at least 85)
same,herbicidal activity against ECHCG,ECHCG [1],very good (a very good herbicidal activity is given at values of at least 85)
same,herbicidal activity against AVEFA,AVEFA,very good (a very good herbicidal activity is given at values of at least 85)
CC(C)CN1C(=O)C(=Cc2cccnc2Br)N(C)C(=O)C1(C)Cc1ccccc1 (racemic) [I-463],herbicidal activity against ECHCG,"ECHCG [2]; application rate 0.5 kg/ha, scale from 0 to 100",good (A good herbicidal activity is given at values of at least 70)
"CN1C(=O)C(Cc2ccccc2)N(C)C(=O)/C1=C/c1cccnc1C#N (stereo not drawn) [Ex. 14, reference compound]",herbicidal activity against ALOMY,ALOMY [3],no herbicidal activity
same,herbicidal activity against APESV,APESV [4],90%
same,herbicidal activity against ECHCG,ECHCG [2]; [11],no herbicidal activity
"CN1C(=O)C(C)(Cc2ccccc2)N(C)C(=O)C1=Cc1cccnc1Cl (stereo not drawn) [Example 3, 3-benzyl-6-[1-(2-chloropyridin-3-yl)methylidene]-1,3,4-tri-methylpiperazine-2,5-dione]",melting point,,146 °C
"CN1C(=O)C(C)(Cc2ccccc2)N(C)C(=O)C1=Cc1cccnc1C#N (stereo not drawn) [Example 4, 3-(5-benzyl-1,4,5-trimethyl-3,6-dioxopiperazin-2-ylidene-methyl)pyridine-2-carbonitrile]",melting point,,163 °C
CN1C(=O)C(C)(Cc2ccccc2)N(C)C(=O)/C1=C/c1cccnc1C#N (stereo not drawn) [I-2],Herbicidal activity in % after 20 days against LAMPU,LAMPU; 62.5 g/ha a.s.,40%
same,Herbicidal activity in % after 20 days against APESV,APESV [5]; 62.5 g/ha a.s.,40%
same,melting point,,163 °C
same,Herbicidal activity in % after 20 days against SETVI,SETVI; 62.5 g/ha a.s.,90%
same,Herbicidal activity in % after 20 days against POLCO,POLCO [6]; 62.5 g/ha a.s.,40%
same,Herbicidal activity in % after 20 days against ALOMY,ALOMY [3]; 62.5 g/ha a.s.,65%
same,herbicidal activity against ALOMY,ALOMY [3],75%
same,Herbicidal activity in % after 20 days against CHEAL,CHEAL; 125 g/ha a.s.,70%
same,Herbicidal activity in % after 20 days against BRAPL,BRAPL; 62.5 g/ha a.s.,65%
same,Herbicidal activity in % after 20 days against VIOAR,VIOAR; 62.5 g/ha a.s.,60%
same,Herbicidal activity in % after 20 days against BROIN,BROIN [7]; 125 g/ha a.s.,45%
same,Herbicidal activity in % after 20 days against APESV,APESV [4]; 125 g/ha a.s.,95%
same,herbicidal activity against APESV,APESV [4],100%
same,Herbicidal activity in % after 20 days against ALOMY,ALOMY [8]; 62.5 g/ha a.s.,45%
same,Herbicidal activity in % after 20 days against ABUTH,ABUTH; 62.5 g/ha a.s.,0%
same,Herbicidal activity in % after 20 days against ECHCG,ECHCG [2]; 62.5 g/ha a.s.,40%
same,herbicidal activity against ECHCG,ECHCG [2]; [11],80%
same,Herbicidal activity in % after 20 days against BROIN,BROIN [9]; 62.5 g/ha a.s.,20%
same,Herbicidal activity in % after 20 days against BROIN,BROIN [9]; 125 g/ha a.s.,80%
same,Herbicidal activity in % after 20 days against POLCO,POLCO [10]; 125 g/ha a.s.,80%
"CCC(CC)Nc1c([N+](=O)[O-])cc(C)c(C)c1[N+](=O)[O-] [pendimethalin, reference compound]",Herbicidal activity in % after 20 days against CHEAL,CHEAL; 250 g/ha a.s.,75%
same,Herbicidal activity in % after 20 days against BROIN,BROIN [7]; 250 g/ha a.s.,0%
same,Herbicidal activity in % after 20 days against APESV,APESV [4]; 250 g/ha a.s.,95%
same,Herbicidal activity in % after 20 days against BROIN,BROIN [9]; 250 g/ha a.s.,40%
same,Herbicidal activity in % after 20 days against POLCO,POLCO [10]; 250 g/ha a.s.,70%
"Cn1nc(C(F)(F)F)c(CS(=O)(=O)C2=NOC(C)(C)C2)c1OC(F)F [pyroxasulfone, reference compound]",Herbicidal activity in % after 20 days against LAMPU,LAMPU; 12.5 g/ha a.s.,80%
same,Herbicidal activity in % after 20 days against APESV,APESV [5]; 12.5 g/ha a.s.,80%
same,Herbicidal activity in % after 20 days against SETVI,SETVI; 12.5 g/ha a.s.,90%
same,Herbicidal activity in % after 20 days against POLCO,POLCO [6]; 12.5 g/ha a.s.,40%
same,Herbicidal activity in % after 20 days against ALOMY,ALOMY [3]; 12.5 g/ha a.s.,90%
same,Herbicidal activity in % after 20 days against ALOMY,ALOMY [8]; 12.5 g/ha a.s.,85%
same,Herbicidal activity in % after 20 days against BROIN,BROIN [9]; 12.5 g/ha a.s.,65%
"CC(C)N(C)S(=O)(=O)NC(=O)c1cc(-n2c(=O)cc(C(F)(F)F)n(C)c2=O)c(F)cc1Cl [saflufenacil, reference compound]",Herbicidal activity in % after 20 days against BRAPL,BRAPL; 6.25 g/ha a.s.,35%
same,Herbicidal activity in % after 20 days against VIOAR,VIOAR; 6.25 g/ha a.s.,80%
same,Herbicidal activity in % after 20 days against ABUTH,ABUTH; 6.25 g/ha a.s.,90%
same,Herbicidal activity in % after 20 days against ECHCG,ECHCG [2]; 6.25 g/ha a.s.,0%
